Assay results from patent US9199946B2, “Pyrimidinone carboxamide inhibitors of endothelial lipase” (BRISTOL-MYERS SQUIBB COMPANY, priority 2012, dated 2015).
Where two headings read alike, the source gives them in different places.

Biological target: T1, Endothelial lipase (EL) (Homo sapiens, UniProt Q9Y5X9)
T1 construct: HT-1080 cells, which were transformed by RAGE technology (Athersys) to overexpress endogenous EL; endogenous in cells; conditioned medium used as the enzyme source
T1 sequence (Q9Y5X9 21-500): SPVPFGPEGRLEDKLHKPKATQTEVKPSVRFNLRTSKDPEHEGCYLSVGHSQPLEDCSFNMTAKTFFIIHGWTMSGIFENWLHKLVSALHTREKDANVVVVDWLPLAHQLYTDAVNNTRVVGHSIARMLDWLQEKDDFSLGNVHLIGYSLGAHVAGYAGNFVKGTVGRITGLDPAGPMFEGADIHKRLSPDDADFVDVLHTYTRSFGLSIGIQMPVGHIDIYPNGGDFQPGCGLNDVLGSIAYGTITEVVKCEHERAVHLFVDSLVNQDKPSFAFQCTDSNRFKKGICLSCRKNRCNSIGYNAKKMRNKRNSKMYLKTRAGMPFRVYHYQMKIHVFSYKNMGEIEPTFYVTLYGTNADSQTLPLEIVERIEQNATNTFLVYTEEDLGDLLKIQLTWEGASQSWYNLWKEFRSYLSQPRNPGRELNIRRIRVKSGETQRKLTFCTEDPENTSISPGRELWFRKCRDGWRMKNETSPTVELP
Test: Endothelial lipase (EL) enzymatic assay with fluorescent substrate A10070 in DMPG vesicles
Format: biochemical
Outline: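 The enzyme source was conditioned medium from HT-1080 cells engineered to overexpress endogenous EL. It was preincubated with compound for 20 min at 37 °C in 50 mM HEPES pH 8.0, 50 mM NaCl, 1 mM CaCl2. Reactions started with DMPG vesicles carrying FRET substrate A10070 (mole fraction 0.05). The rate was taken from the linear slope of fluorescence (ex 488/em 530 nm) over 10 min.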

[1] = conditioned media from HT-1080 cells overexpressing endogenous EL, 20 min preincubation at 37° C., read-out: EL IC50
[2] = range observed in the EL assay, read-out: EL IC50 values

Structure (SMILES) | IC50 [1] | IC50 [2]
CC(C)(O)CNc1c(C(=O)N[C@H]2CC[C@@H](c3ccccc3)CC2)[nH]c(=O)[nH]c1=O [Example 234, 5-(2-hydroxy-2-methylpropylamino)-2,6-dioxo-N-(cis-4-phenylcyclohexyl)-1,2,3,6-tetrahydropyrimidine-4-carboxamide] | 0.439 µM | ≤ 10 µM
Nc1c(C(=O)N[C@@H]2CCc3c2cccc3C(F)(F)F)[nH]c(=O)[nH]c1=O [Example 14, (R)-5-amino-2,6-dioxo-N-(4-(trifluoromethyl)-2,3-dihydro-1H-inden-1-yl)-1,2,3,6-tetrahydropyrimidine-4-carboxamide] | 2.78 µM | ≤ 10 µM
O=C(N[C@H]1CCc2ccc(OCc3ccccc3)cc21)c1[nH]c(=O)[nH]c(=O)c1O [Example 259, (S)-N-(6-(benzyloxy)-2,3-dihydro-1H-inden-1-yl)-5-hydroxy-2,6-dioxo-1,2,3,6-tetrahydropyrimidine-4-carboxamide] | 0.01 µM | ≤ 10 µM
O=C(N[C@H]1CC[C@@H](c2ccccc2)CC1)c1[nH]c(=O)[nH]c(=O)c1NCCN1CCCCC1 [Example 237, 2,6-dioxo-N-((1s,4s)-4-phenylcyclohexyl)-5-(2-(piperidin-1-yl)ethylamino)-1,2,3,6-tetrahydropyrimidine-4-carboxamide] | – | ≤ 10 µM
CO[C@]1(c2ccc(F)cc2)CC[C@@H](NC(=O)c2[nH]c(=O)[nH]c(=O)c2N)CC1 [Example 4, 5-amino-N-(cis-4-(4-fluorophenyl)-4-methoxycyclohexyl)-2,6-dioxo-1,2,3,6-tetrahydropyrimidine-4-carboxamide] | – | ≤ 10 µM
NC(=O)c1ccccc1-c1ccc([C@@H]2CC[C@H](NC(=O)c3[nH]c(=O)[nH]c(=O)c3N)C2)cc1 [Example 180, 5-amino-N-((1S,3R)-3-(2′-carbamoyl-[1,1′-biphenyl]-4-yl)cyclopentyl)-2,6-dioxo-1,2,3,6-tetrahydropyrimidine-4-carboxamide] | 0.141 µM | ≤ 10 µM
Nc1c(C(=O)N[C@H]2CC[C@@H](c3ccc(OCc4ccccc4)cc3)CC2)[nH]c(=O)[nH]c1=O [Example 114, 5-amino-N-(cis-4-(4-(benzyloxy)phenyl)cyclohexyl)-2,6-dioxo-1,2,3,6-tetrahydropyrimidine-4-carboxamide] | – | ≤ 10 µM
Cc1c(-c2ccc([C@H]3CC[C@@H](NC(=O)c4[nH]c(=O)[nH]c(=O)c4N)C3)cc2)cnn1-c1ccccc1 [Example 165, 5-amino-N-((1R,3S)-3-(4-(5-methyl-1-phenyl-1H-pyrazol-4-yl)phenyl)cyclopentyl)-2,6-dioxo-1,2,3,6-tetrahydropyrimidine-4-carboxamide] | – | ≤ 10 µM
Nc1c(C(=O)N[C@H]2CCCc3ccc(C(F)(F)F)cc32)[nH]c(=O)[nH]c1=O [Example 54, (S)-5-amino-2,6-dioxo-N-(7-(trifluoromethyl)-1,2,3,4-tetrahydronaphthalen-1-yl)-1,2,3,6-tetrahydropyrimidine-4-carboxamide] | 7.16 µM | ≤ 10 µM
Nc1c(C(=O)N[C@H]2C[C@@H](c3ccccc3)c3ccccc32)[nH]c(=O)[nH]c1=O (racemic) [Example 18, 5-amino-2,6-dioxo-N-(cis-3-phenyl-2,3-dihydro-1H-inden-1-yl)-1,2,3,6-tetrahydropyrimidine-4-carboxamide] | – | ≤ 10 µM
O=C(N[C@H]1CC[C@@H](c2ccccc2)CC1)c1[nH]c(=O)[nH]c(=O)c1NC1CCN(Cc2ccccc2)C1 (stereo partly drawn) [Example 223, 5-(1-benzylpyrrolidin-3-ylamino)-2,6-dioxo-N-(cis-4-phenylcyclohexyl)-1,2,3,6-tetrahydropyrimidine-4-carboxamide] | – | ≤ 10 µM
COc1ccccc1C1CCC(NC(=O)c2[nH]c(=O)[nH]c(=O)c2N)C1 (stereo not drawn) [Example 141, 5-amino-N-(3-(2-methoxyphenyl)cyclopentyl)-2,6-dioxo-1,2,3,6-tetrahydropyrimidine-4-carboxamide] | – | ≤ 10 µM
COc1ccc2c(c1)C(NC(=O)c1[nH]c(=O)[nH]c(=O)c1N)CCC2 (single isomer, unassigned; enantiomer b) [Example 200, 5-amino-N-(7-methoxy-1,2,3,4-tetrahydronaphthalen-1-yl)-2,6-dioxo 1,2,3,6-tetrahydropyrimidine-4-carboxamide (Enantiomer B)] | – | ≤ 10 µM
Nc1c(C(=O)N[C@@H]2CCc3cc(OCc4ccccc4)ccc32)[nH]c(=O)[nH]c1=O [Example 87, (R)-5-amino-N-(5-(benzyloxy)-2,3-dihydro-1H-inden-1-yl)-2,6-dioxo-1,2,3,6-tetrahydropyrimidine-4-carboxamide] | – | ≤ 10 µM
Nc1c(C(=O)N[C@@H]2CC[C@H](c3ccc(-c4cccc5ncccc45)cc3)C2)[nH]c(=O)[nH]c1=O [Example 175, 5-amino-2,6-dioxo-N-((1R,3S)-3-(4-(quinolin-5-yl)phenyl)cyclopentyl)-1,2,3,6-tetrahydropyrimidine-4-carboxamide] | 0.496 µM | ≤ 10 µM
Nc1c(C(=O)N[C@@H]2CCCc3c(NCc4ccccc4)cccc32)[nH]c(=O)[nH]c1=O [Example 123, (R)-5-amino-N-(5-(benzylamino)-1,2,3,4-tetrahydronaphthalen-1-yl)-2,6-dioxo-1,2,3,6-tetrahydropyrimidine-4-carboxamide] | – | ≤ 10 µM
Nc1c(C(=O)N[C@H]2CC[C@@H](c3ccc(-c4ccccc4CO)cc3)C2)[nH]c(=O)[nH]c1=O [Example 174, 5-amino-N-((1S,3R)-3-(2′-(hydroxymethyl)biphenyl-4-yl)cyclopentyl)-2,6-dioxo-1,2,3,6-tetrahydropyrimidine-4-carboxamide] | – | ≤ 10 µM
Nc1c(C(=O)NC2CCN(c3ccccc3)C2)[nH]c(=O)[nH]c1=O (stereo not drawn) [Example 182, 5-amino-2,6-dioxo-N-(1-phenylpyrrolidin-3-yl)-1,2,3,6-tetrahydropyrimidine-4-carboxamide] | – | ≤ 10 µM
COc1ccc2c(c1)C(NC(=O)c1[nH]c(=O)[nH]c(=O)c1N)CC2 (single isomer, unassigned) [Example 72, 5-amino-N-(6-methoxy-2,3-dihydro-1H-inden-1-yl)-2,6-dioxo-1,2,3,6-tetrahydropyrimidine-4-carboxamide] | 22.2 µM | –
O=C(N[C@H]1CC[C@@H](c2ccccc2)CC1)c1[nH]c(=O)[nH]c(=O)c1NCc1cccnc1 [Example 209, 2,6-dioxo-N-(cis-4-phenylcyclohexyl)-5-(pyridin-3-ylmethylamino)-1,2,3,6-tetrahydropyrimidine-4-carboxamide] | 0.512 µM | ≤ 10 µM
CC(C)(C)COc1ccc(C2CCC(NC(=O)c3[nH]c(=O)[nH]c(=O)c3N)C2)cc1 (stereo not drawn) [Example 143, 5-amino-N-(3-(4-(neopentyloxy)phenyl)cyclopentyl)-2,6-dioxo-1,2,3,6-tetrahydropyrimidine-4-carboxamide] | – | ≤ 10 µM
Nc1c(C(=O)N[C@H]2CCc3c(Br)cccc32)[nH]c(=O)[nH]c1=O [Example 60, (S)-5-amino-N-(4-bromo-2,3-dihydro-1H-inden-1-yl)-2,6-dioxo-1,2,3,6-tetrahydropyrimidine-4-carboxamide] | – | ≤ 10 µM
O=C(N[C@H]1CCN(c2ccccc2)C1)c1[nH]c(=O)[nH]c(=O)c1O [Example 274, (S)-5-hydroxy-2,6-dioxo-N-(1-phenylpyrrolidin-3-yl)-1,2,3,6-tetrahydropyrimidine-4-carboxamide] | – | ≤ 10 µM
